Assays:
Experiment in all cases: relative viability (nuclei count vs DMSO), 5 days (fraction); higher = more cells survive
Ponatinib + Trametinib = compound: Cc1ccc(C(=O)Nc2ccc(CN3CCN(C)CC3)c(C(F)(F)F)c2)cc1C#Cc1cnc2cccnn12 [Ponatinib] + CC(=O)Nc1cccc(-n2c(=O)n(C3CC3)c(=O)c3c(Nc4ccc(I)cc4F)n(C)c(=O)c(C)c32)c1 [Trametinib] (partner 0.02 µM)
Procedure, shortened: (§1)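 The day after seeding in 1536-well plates, lung cancer cell lines were treated by pin tool with a single drug, or with a fixed anchor-drug dose together with five library-drug doses (not always all listed) in √10 steps. After 5 days, a combined fix-and-stain solution (final 0.05% Triton X-100, 1% formaldehyde, 1 ug/ml Hoechst) was added. Nuclei counted on 4× images gave relative viability as treated counts over vehicle counts, reported as the median of duplicate plates.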

Pazopanib + Phenformin = compound: Cc1ccc(Nc2nccc(N(C)c3ccc4c(C)n(C)nc4c3)n2)cc1S(N)(=O)=O [Pazopanib] + N=C(N)NC(=N)NCCc1ccccc1 [Phenformin] (partner 250 µM)
Procedure, shortened: as §1

Pazopanib + Vorinostat = compound: Cc1ccc(Nc2nccc(N(C)c3ccc4c(C)n(C)nc4c3)n2)cc1S(N)(=O)=O [Pazopanib] + O=C(CCCCCCC(=O)Nc1ccccc1)NO [Vorinostat] (partner 1 µM)
Procedure, shortened: as §1

Pazopanib + Decitabine = compound: Cc1ccc(Nc2nccc(N(C)c3ccc4c(C)n(C)nc4c3)n2)cc1S(N)(=O)=O [Pazopanib] + Nc1ncn([C@H]2C[C@H](O)[C@@H](CO)O2)c(=O)n1 [Decitabine] (partner 2 µM)
Procedure, shortened: as §1

**Q.** What does the source list for UMC-11?
**A.** relative viability (Ponatinib + Trametinib; first compound 0.002 µM): 0.648; relative viability (Ponatinib + Trametinib; first compound 0.006325 µM): 0.638; relative viability (Ponatinib + Trametinib; first compound 0.06325 µM): 0.822; relative viability (Ponatinib + Trametinib; first compound 0.2 µM): 0.709; relative viability (Pazopanib + Phenformin; first compound 0.01 µM): 0.347; relative viability (Pazopanib + Phenformin; first compound 0.03162 µM): 0.339; relative viability (Pazopanib + Phenformin; first compound 0.1 µM): 0.361; relative viability (Pazopanib + Phenformin; first compound 0.3162 µM): 0.32; relative viability (Pazopanib + Phenformin; first compound 1 µM): 0.341; relative viability (Pazopanib + Vorinostat; first compound 0.01 µM): 0.353; relative viability (Pazopanib + Vorinostat; first compound 0.03162 µM): 0.306; relative viability (Pazopanib + Vorinostat; first compound 0.1 µM): 0.368; relative viability (Pazopanib + Vorinostat; first compound 0.3162 µM): 0.371; relative viability (Pazopanib + Vorinostat; first compound 1 µM): 0.446; relative viability (Pazopanib + Decitabine; first compound 0.01 µM): 0.598; relative viability (Pazopanib + Decitabine; first compound 0.03162 µM): 0.686; relative viability (Pazopanib + Decitabine; first compound 0.1 µM): 0.616; relative viability (Pazopanib + Decitabine; first compound 0.3162 µM): 0.578; relative viability (Pazopanib + Decitabine; first compound 1 µM): 0.49
